Reference: patent US20100279930A1, “HUMAN PANCREATIC POLYPEPTIDE (HPP) ANALOGUES AND THEIR EFFECTS ON FEEDING BEHAVIOUR” (priority 2007, published 2010)
No end group written: not given here.

Legend:
Y5 receptor = biological target: T1, Y5 receptor (Homo sapiens, UniProt Q15761); details: cited from earlier work
T1 sequence (Q15761 1-445): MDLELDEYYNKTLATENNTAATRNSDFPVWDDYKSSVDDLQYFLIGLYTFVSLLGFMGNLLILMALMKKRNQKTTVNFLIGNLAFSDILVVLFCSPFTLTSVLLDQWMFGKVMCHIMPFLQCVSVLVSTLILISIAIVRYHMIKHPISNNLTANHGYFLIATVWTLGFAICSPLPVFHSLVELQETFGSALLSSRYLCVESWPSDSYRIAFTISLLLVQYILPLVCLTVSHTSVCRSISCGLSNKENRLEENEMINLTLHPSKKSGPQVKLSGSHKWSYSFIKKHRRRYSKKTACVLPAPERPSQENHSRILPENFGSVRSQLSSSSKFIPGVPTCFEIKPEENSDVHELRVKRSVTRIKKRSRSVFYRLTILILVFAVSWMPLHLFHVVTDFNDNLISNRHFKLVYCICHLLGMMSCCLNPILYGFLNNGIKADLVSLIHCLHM

[1] = injected intracerebroventricularly; cited from earlier work
human Y4 receptor = human Y4 receptor (Homo sapiens, UniProt P50391); assay: Human Y Receptor-4 Displacement Assay; details: for binding to the Y4 receptor compared with code 6672: comparator compound of SEQ ID NO:72 (code 6672)
From the text: Human Y Receptor-4 Displacement Assay:
The principle of the displacement assay is a fixed quantity of radiolabeled ligand competes with varying doses of a ‘cold’ (non-labelled) ligand for a limited number of receptor binding sites, enabling quantification of the affinity of the cold ligand to the receptor.
The cDNA clone was transformed into competent E.coli so a larger preparation of DNA could be produced which was transfected into HEK-293T cells. Using antibiotics, cells expressing the transfected cDNA were selected for, and those cells containing the receptor plasmid were scaled up for a cell membrane preparation. Cells were harvested from culture flasks by scraping, and then homogenized and the membrane separated from other cellular material by differential centrifugation.
For the displacement assay all reagents are prepared in displacement assay buffer (25 mM HEPES pH 7.4, 2 mM MgCl2, 4 mM CaCl2 1% BSA, 4 mM) containing protease inhibitors (2 mM phenylmethanesulphonylfluoride, 0.5 mM diprotin A and 0.5 mM phosphoramidon). One thousand counts/sec/tube ^I125PP (iodinated by the direct iodogen method) is used as the radiolabeled peptide, and the competing peptide is tested at varying concentrations between 10 uM and 0.02 pM, with each concentration tested in a minimum of duplicate. To each assay tube a volume of the prepared membrane, enough for total counts (where no competing peptide is present) of 10000-15000 counts/240 second is added. Reagents are added in the following order: buffer, label competing peptide and cell membrane, with a total volume is 500 μl.
The assay is incubated at room temperature for 90 minutes before the receptor-^125PP complex is separated from free label by centrifugation at 15600 g for 3 minutes. The supernatant is removed and discarded and the pellet resuspended and washed with 500 μl fresh assay buffer and re-centrifuged. After centrifugation and removal of supernatant the radioactivity of the pellet was measured for 240 seconds using a γ-counter. Specific binding is calculated as the difference between the amount of ^125I-PP bound in the absence (total) and presence (non-specific) of unlabelled peptide. From the binding data, an IC50 for the competing peptide is calculated. Each peptide is tested on a minimum of two separate occasions.

mice = details: peripheral administration; cited from earlier work
Male C57BL/6 mice = assay: In vivo food intake experiments in mice (half-life in the blood judged from appetite suppression); design: species or system mouse; details: comparator native human PP; judged from food intake reduction in mice (4-8 h, 0-24 h, 4:1 or 24:1 ratio)
Procedure: In Vivo Food Intake Experiments
Male C57BL/6 mice (20-30 g) were used for all mouse experiments. Mice were individually housed in IVC cages. Animals were randomized by weight and fasted overnight for 16 hrs before intraperitoneal injection at 9 am. All peptide solutions were prepared freshly the morning of the study and injected as 100 ul. Food intake was measured at 1, 2, 3, 4, 6, 8 and 24 hours post injection. The peptide was dosed at 30 nmol/kg, 50 nmol/kg, 100 nmol/kg, 120 nmol/kg, 150 nmol/kg, 300 nmol/kg, 600 nmol/kg or 1000 nmol/kg depending on the activity. In each case, a control of saline and a control of unmodified human Pancreatic Polypeptide was carried out. All statistics are calculated using a one-way ANOVA with Dunnett's post-test or one-way ANOVA with Bonferroni post-test.
A control of saline was used.
FIG. 2 and in the comparative graph of FIG. 3. […] It is hypothesized that that is as a possible result of stronger activity at the receptor and longer activity.
The mouse is a good model for degradation rates in humans, irrespective of the fact that the receptors for PP in mice are different from the human receptor.

[2] = test system: children with Prader-Willi syndrome; details: 100 pmol/kg/h for 90 minutes; cited from earlier work
healthy volunteers = details: cited from earlier work

human Y4 receptor, sequence (P50391 whole entry): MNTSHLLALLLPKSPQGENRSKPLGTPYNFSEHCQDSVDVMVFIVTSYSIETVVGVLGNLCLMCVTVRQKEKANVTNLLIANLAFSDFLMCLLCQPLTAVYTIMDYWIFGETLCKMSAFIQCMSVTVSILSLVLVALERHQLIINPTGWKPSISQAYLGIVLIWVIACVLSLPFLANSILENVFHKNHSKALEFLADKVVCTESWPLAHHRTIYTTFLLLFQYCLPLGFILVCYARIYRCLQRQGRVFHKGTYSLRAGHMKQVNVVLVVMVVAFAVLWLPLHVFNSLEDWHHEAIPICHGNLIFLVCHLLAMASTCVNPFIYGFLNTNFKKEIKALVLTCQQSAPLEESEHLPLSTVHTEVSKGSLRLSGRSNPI

2-36[K^4, RYYSA^19-23]PP
affinity to the Y5-receptor (Y5 receptor): strong affinity
effect on food intake [1]: strong stimulatory effect on food intake

7215 (AAPLEPVYPGDNATPEQMAQYAAALRRYINKLTRPRY) [compound 7215]
binding at the Y4 receptor compared with code 7214 (human Y4 receptor; comparator SEQ ID NO:167 (code 7214)): still further better binding at the Y4 receptor

6675 (KPLEPVYPGDNATPEELNRYYASLRRYINMLTRPRY) [compound 6675]
binding to the Y4 receptor compared with code 6672 (human Y4 receptor): stronger binders

mouse PP: mouse Pancreatic Polypeptide, literature (APLEPMYPGDYATPEQMAQYETQLRRYINTLTRPRY; ends and bridges not checked; UniProt P10601 30-65, looked up)
effect on energy balance, food intake and energy expenditure (mice): induce a negative energy balance by decreasing food intake and stimulating energy expenditure

6435 (KPLEPVYPGDNATPEQMAQYAADLRRYINMLTRPRY) [compound 6435]
half-life in the blood compared with native human PP (Male C57BL/6 mice): longer half-life

[K^4]PP
affinity to the Y5-receptor (Y5 receptor): strong affinity
effect on food intake [1]: strong stimulatory effect on food intake

[RYYSA^19-23]PP
affinity to the Y5-receptor (Y5 receptor): strong affinity
effect on food intake [1]: strong stimulatory effect on food intake

6674 (KPLEPVYPGDNATPEELNRYYASLRRYINMLTRPRY) [compound 6674]
binding to the Y4 receptor compared with code 6672 (human Y4 receptor): stronger binders

4059668 (GAPLEPHFPGDNATPEEMAKYAAELRRYINKLTRPRY; synthetic hPP analogue peptide) [compound 4059668]
half-life in the blood compared with native human PP (Male C57BL/6 mice): longer half-life

7218 (AAPLEPVYPGDNATPEQMAQYAADLRRYINKLTRPRY) [compound 7218]
binding to the Y4 receptor compared with codes 6433 and 4055855 (human Y4 receptor; comparators SEQ ID NO:9 (Ala 0, code 6433) and SEQ ID NO:281 (Lys 30, code 4055855)): binds the Y4 receptor better

Ala Pro Leu Glu Pro Val Tyr Pro Gly Asp Asn Ala Thr Pro Glu Gln Met Ala Gln Tyr Ala Ala Asp Leu Arg Arg Tyr Ile Asn Met Leu Thr Arg Pro Arg Tyr NH2 [native human PP]
effect on appetite [2]: no effect on appetite
reduction in energy intake (healthy volunteers; infusion 5 pmol/kg/min (300 pmol/kg/h) for 90 minutes): 11%
effect on appetite and food intake (healthy volunteers; infusion 10 pmol/kg/min (600 pmol/kg/h) for 90 minutes): reduce appetite and food intake
decrease in 24 hour cumulative energy intake (healthy volunteers; infusion 10 pmol/kg/min for 90 minutes): 25%
